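Five compound concentrations were applied to cells in 96-well plates for 48 hours; endpoints were derived by simple linear interpolation of the resulting dose-response curve. The concentration for 50% growth inhibition is given as GI50.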 Active and inactive are the calls of the source. No stated cut-off is given here; in the data, active = GI50 up to about 1.1 µM and inactive = higher.
Key:
Test in all cases: NCI anticancer screen, dose series, 48 h
[1] = tested on: A498
[2] = tested on: A549
[3] = tested on: Malme-3M
[4] = tested on: SN12C
[5] = tested on: ACHN
[6] = tested on: SW-620
[7] = tested on: 786-0
[8] = tested on: Hs-578T
[9] = tested on: TK-10
[10] = tested on: COLO 205
[11] = tested on: UO-31
[12] = tested on: SNB-19
[13] = tested on: CAKI-1
[14] = tested on: NCI-H226
[15] = tested on: SK-MEL-28
[16] = tested on: RPMI-8226
[17] = tested on: MDA-MB-435
[18] = tested on: SK-MEL-2
[19] = tested on: LOX IMVI

SMILES	GI50 [1]	GI50 [2]	GI50 [3]	GI50 [4]	GI50 [5]	GI50 [6]	GI50 [7]	GI50 [8]	GI50 [9]	GI50 [10]	GI50 [11]	GI50 [12]	GI50 [13]	GI50 [14]	GI50 [15]	GI50 [16]	GI50 [17]	GI50 [18]	GI50 [19]
COc1ccc2oc3c(C)cc4c(OC)nnc(OC)c4c3c2c1	17.4 µM (inactive)	9.57 µM (inactive)	9.95 µM (inactive)	7.76 µM (inactive)	5.05 µM (inactive)	7.57 µM (inactive)	7.52 µM (inactive)	31 µM (inactive)	16.9 µM (inactive)	10.8 µM (inactive)	6.93 µM (inactive)	13.6 µM (inactive)	34 µM (inactive)	30.8 µM (inactive)	68.2 µM (inactive)	4.93 µM (inactive)	25.4 µM (inactive)	82.4 µM (inactive)	5.55 µM (inactive)
CCOP(=O)(OCC)C(c1ccccc1)N(C(=O)NC(F)(F)F)c1ccc(C)cc1 (stereo unspecified)	> 100 µM (inactive)	> 100 µM (inactive)	> 100 µM (inactive)	> 100 µM (inactive)	> 100 µM (inactive)	> 100 µM (inactive)	> 100 µM (inactive)	69.5 µM (inactive)	> 100 µM (inactive)	> 100 µM (inactive)	> 100 µM (inactive)	> 100 µM (inactive)	> 100 µM (inactive)	> 100 µM (inactive)	> 100 µM (inactive)	> 100 µM (inactive)	> 100 µM (inactive)	> 100 µM (inactive)	> 100 µM (inactive)
CC(O)CCNC(=O)Nc1c(C(F)(F)F)cc(-c2ccccc2)[nH]c1=O (stereo unspecified)	> 100 µM (inactive)	> 100 µM (inactive)	47.3 µM (inactive)	> 100 µM (inactive)	> 100 µM (inactive)	> 100 µM (inactive)	> 100 µM (inactive)	> 100 µM (inactive)	> 100 µM (inactive)	> 100 µM (inactive)	> 100 µM (inactive)	> 100 µM (inactive)	> 100 µM (inactive)	> 100 µM (inactive)	> 100 µM (inactive)	> 100 µM (inactive)	> 100 µM (inactive)	> 100 µM (inactive)	> 100 µM (inactive)
O=c1cc(/N=N\c2ccc(Cl)cc2)[nH]c(=O)[nH]1	> 10 µM (inactive)	10.1 µM (inactive)	3.01 µM (inactive)	3.98 µM (inactive)	2.32 µM (inactive)	2.33 µM (inactive)	1.66 µM (inactive)	5.68 µM (inactive)	7.55 µM (inactive)	2.33 µM (inactive)	4.82 µM (inactive)	10.3 µM (inactive)	0.923 µM (active)	12.9 µM (inactive)	4.69 µM (inactive)	3.19 µM (inactive)	4.84 µM (inactive)	13.3 µM (inactive)	1.57 µM (inactive)
ClC1(c2ccccc2)c2ccc(Br)cc2-c2cc(Br)ccc21	18.8 µM (inactive)	17.1 µM (inactive)	17 µM (inactive)	18.6 µM (inactive)	16.1 µM (inactive)	19.8 µM (inactive)	16.6 µM (inactive)	19.9 µM (inactive)	19 µM (inactive)	17.7 µM (inactive)	15.5 µM (inactive)	16.9 µM (inactive)	14.9 µM (inactive)	17.4 µM (inactive)	18.8 µM (inactive)	28.7 µM (inactive)	13.5 µM (inactive)	17.8 µM (inactive)	17.8 µM (inactive)
COc1cc(CCNC2=CC(=O)c3nc[nH]c3C2=O)ccc1O	34.4 µM (inactive)	26.6 µM (inactive)	13.1 µM (inactive)	19.1 µM (inactive)	30.3 µM (inactive)	23.8 µM (inactive)	35.7 µM (inactive)	25.2 µM (inactive)	36.1 µM (inactive)	22.6 µM (inactive)	40.3 µM (inactive)	18.2 µM (inactive)	48.3 µM (inactive)	31.5 µM (inactive)	26.7 µM (inactive)	29.4 µM (inactive)	17.6 µM (inactive)	21.4 µM (inactive)	19 µM (inactive)
Brc1ccc(CCNCCN2CCCCC2)cc1	18 µM (inactive)	16.4 µM (inactive)	17.7 µM (inactive)	25.9 µM (inactive)	20.6 µM (inactive)	17 µM (inactive)	14.1 µM (inactive)	20.3 µM (inactive)	15.5 µM (inactive)	12.9 µM (inactive)	12.2 µM (inactive)	17.3 µM (inactive)	14.1 µM (inactive)	37.8 µM (inactive)	11.8 µM (inactive)	37.7 µM (inactive)	5.47 µM (inactive)	19.4 µM (inactive)	14.1 µM (inactive)
C/C(=N/NC(=S)N1CCCCC1)c1ccccc1O	> 100 µM (inactive)	> 31.6 µM (inactive)	> 31.6 µM (inactive)	> 31.6 µM (inactive)	> 31.6 µM (inactive)	> 31.6 µM (inactive)	> 31.6 µM (inactive)	20.1 µM (inactive)	> 31.6 µM (inactive)	23.4 µM (inactive)	> 31.6 µM (inactive)	> 31.6 µM (inactive)	> 31.6 µM (inactive)	> 31.6 µM (inactive)	> 31.6 µM (inactive)	13.6 µM (inactive)	> 31.6 µM (inactive)	> 31.6 µM (inactive)	> 31.6 µM (inactive)
COc1ccc2nc3cc([N+](=O)[O-])ccc3c(NNc3ccc(Cl)cc3)c2c1	0.073 µM (active)	17.2 µM (inactive)	43.2 µM (inactive)	33.1 µM (inactive)	32.9 µM (inactive)	12.1 µM (inactive)	17.9 µM (inactive)	29.9 µM (inactive)	1.9 µM (inactive)	12.6 µM (inactive)	34.3 µM (inactive)	75.7 µM (inactive)	0.16 µM (active)	1.1 µM (active)	70 µM (inactive)	22.8 µM (inactive)	26.1 µM (inactive)	18.7 µM (inactive)	26.9 µM (inactive)
CCCCCCCCCC[C@H](O)[C@H]1CC[C@H]([C@H]2CC[C@H]([C@H](O)CC[C@H](O)CCCCCCC[C@@H](O)CC3=C[C@H](C)OC3=O)O2)O1	1.75 µM (inactive)	4.6 µM (inactive)	25.8 µM (inactive)	91.4 µM (inactive)	1.6 µM (inactive)	> 10 µM (inactive)	25.1 µM (inactive)	> 10 µM (inactive)	31 µM (inactive)	12.2 µM (inactive)	2.02 µM (inactive)	17 µM (inactive)	57 µM (inactive)	2.47 µM (inactive)	> 10 µM (inactive)	1.04 µM (active)	3.9 µM (inactive)	78 µM (inactive)	7.46 µM (inactive)
N#C[BH2-][n+]1cn(C2CC(OP(=O)(O)OCC3OC(n4cnc5c(=O)[nH]c(N)nc54)CC3O)C(CO)O2)c2nc(N)[nH]c(=O)c21 (stereo unspecified)	> 100 µM (inactive)	> 100 µM (inactive)	70.5 µM (inactive)	> 100 µM (inactive)	> 100 µM (inactive)	> 100 µM (inactive)	> 100 µM (inactive)	> 100 µM (inactive)	> 100 µM (inactive)	> 100 µM (inactive)	> 100 µM (inactive)	> 100 µM (inactive)	> 100 µM (inactive)	> 100 µM (inactive)	> 100 µM (inactive)	> 100 µM (inactive)	> 100 µM (inactive)	> 100 µM (inactive)	55.5 µM (inactive)
COc1ccc(/C=C/C(=O)NCC(NC(=O)/C=C/c2ccc(OC)c(OC)c2)C(=O)O)cc1OC (stereo unspecified)	> 100 µM (inactive)	> 100 µM (inactive)	> 100 µM (inactive)	> 100 µM (inactive)	> 100 µM (inactive)	> 100 µM (inactive)	> 100 µM (inactive)	> 100 µM (inactive)	> 100 µM (inactive)	> 100 µM (inactive)	> 100 µM (inactive)	> 100 µM (inactive)	> 100 µM (inactive)	> 100 µM (inactive)	> 100 µM (inactive)	> 100 µM (inactive)	> 100 µM (inactive)	> 100 µM (inactive)	> 100 µM (inactive)
COc1cc(/C=C2\CC/C(=C\c3cc(OC)c(O)c(OC)c3)C2=O)cc(OC)c1O	1.01 µM (active)	3.19 µM (inactive)	0.345 µM (active)	8.32 µM (inactive)	2.05 µM (inactive)	1.88 µM (inactive)	4.9 µM (inactive)	2.09 µM (inactive)	5.32 µM (inactive)	17.1 µM (inactive)	3.43 µM (inactive)	3.69 µM (inactive)	2.72 µM (inactive)	3.94 µM (inactive)	1.05 µM (active)	1.04 µM (active)	1.39 µM (inactive)	0.667 µM (active)	2.29 µM (inactive)
COC(=O)CCN1CCN(CCO)CC1C (stereo unspecified)	> 10 µM (inactive)	> 10 µM (inactive)	> 10 µM (inactive)	> 10 µM (inactive)	> 10 µM (inactive)	> 10 µM (inactive)	> 10 µM (inactive)	> 10 µM (inactive)	> 10 µM (inactive)	> 10 µM (inactive)	> 10 µM (inactive)	> 10 µM (inactive)	> 10 µM (inactive)	> 10 µM (inactive)	> 10 µM (inactive)	> 10 µM (inactive)	> 10 µM (inactive)	> 10 µM (inactive)	> 10 µM (inactive)

Reference: ChEMBL document CHEMBL1201862, “PubChem BioAssay data set” (2004)
